US9963462B2 (priority 2015, dated 2018)

Legend:
[1] = target: SNAP-hSPR (sepiapterin reductase, SPR) (Homo sapiens, UniProt P35270); assay: biochemical; type: binding; details: terbium labelled SNAP-hSPR / SSZ labelled SNAP-EGFP; read-out: hTR-FRET IC50
[2] = test system: BH4 levels in SK-N-BE (2) cells; assay: SKN-N-BE (2) cellular assay, BH4 levels by LC-MS; type: cell-based; details: Homo sapiens, SKNBE2, read-out: SK-N-BE(2) IC50, SK-N-BE (2) cells, BH4 levels by LC-MS

Chain of SNAP-hSPR (sepiapterin reductase, SPR) (P35270 whole entry): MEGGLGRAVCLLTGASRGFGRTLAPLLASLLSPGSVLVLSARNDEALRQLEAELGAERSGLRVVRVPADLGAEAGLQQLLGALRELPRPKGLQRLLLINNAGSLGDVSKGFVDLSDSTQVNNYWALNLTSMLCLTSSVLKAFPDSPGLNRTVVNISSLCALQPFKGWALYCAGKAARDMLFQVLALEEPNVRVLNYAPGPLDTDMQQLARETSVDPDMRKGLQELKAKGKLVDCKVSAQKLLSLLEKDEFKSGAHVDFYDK

SMILES	IC50 [1]	IC50 [2]
Cc1cc(=O)[nH]c(-n2ncc(C(=O)N(C)C3CCCc4ccccc43)c2C)n1 (stereo not shown) [Q-0373]	0.02 µM	1.5 µM
Cc1cc(=O)[nH]c(-n2ncc(C(=O)N(C)C3CCc4ccccc43)c2C)n1 (stereo not shown) [Q-0374]	0.009 µM	1.2 µM
Cc1cc(=O)[nH]c(-n2nc(C)c(C(=O)N3CCc4ccccc4C3)c2C)n1 [Q-0375]	0.02 µM	2.5 µM
Cc1cc(=O)[nH]c(-n2ccc(C(=O)N3CCc4ccccc43)n2)n1 [Q-0376]	0.03 µM	8.2 µM
Cc1cc(=O)[nH]c(-n2ccc(C(=O)N3c4ccccc4CC3C)n2)n1 (stereo not shown) [Q-0377]	0.04 µM	6.3 µM
Cc1c(C(=O)N2CCC(C)(C)C2)cnn1-c1nc2ccsc2c(=O)[nH]1 [Q-0380]	0.007 µM	2.7 µM
Cc1nc(-n2ncc(C(=O)N3CCc4ccccc4C3)c2C)[nH]c(=O)c1C [Q-0381]	0.01 µM	2.1 µM
Cc1c(C(=O)N2CCc3ccccc3C2)cnn1-c1nc2sccc2c(=O)[nH]1 [Q-0382]	0.003 µM	0.1 µM
Cc1c(C(=O)N2CCc3ccccc3C2)cnn1-c1nc(C(C)(C)C)cc(=O)[nH]1 [Q-0383]	0.3 µM	69 µM
Cc1cc(=O)[nH]c(-n2ncc(C(=O)NCC3(c4ccccc4)CCCC3)c2C)n1 [Q-0385]	0.03 µM	3.8 µM
Cc1c(C(=O)N2CCc3ccccc3C2)cnn1-c1ncc(Cl)c(=O)[nH]1 [Q-0387]	0.01 µM	3.7 µM
O=C(c1ccn(-c2nc3ccsc3c(=O)[nH]2)n1)N1CCc2ccccc2C1 [Q-0388]	0.1 µM	36 µM
CC1(C)CCN(C(=O)c2ccn(-c3nc4ccsc4c(=O)[nH]3)n2)C1 [Q-0389]	0.02 µM	5.6 µM
O=C(c1ccn(-c2nc3ccsc3c(=O)[nH]2)n1)N1CCC(C(F)(F)F)CC1 [Q-0390]	0.02 µM	12 µM
Cc1c(C(=O)N2CCc3ccccc3C2)cnn1-c1nc(C(F)(F)F)cc(=O)[nH]1 [Q-0393]	0.006 µM	0.8 µM
Cc1c(C(=O)N2CCCc3ccccc32)cnn1-c1nc2ccsc2c(=O)[nH]1 [Q-0395]	0.02 µM	0.5 µM

SMILES	IC50 [1]	IC50 [2]
Cc1c(C(=O)N2CCc3ccccc3C2)cnn1-c1nc2c(c(=O)[nH]1)CCC2 [Q-0396]	0.002 µM	0.061 µM
Cc1c(C(=O)N2CCCC2(C)C)cnn1-c1nc2ccsc2c(=O)[nH]1 [Q-0397]	0.02 µM	2.3 µM
Cc1c(C(=O)N2CCC3(CCCC3)CC2)cnn1-c1nc2ccsc2c(=O)[nH]1 [Q-0398]	0.01 µM	0.072 µM
Cc1c(C(=O)N2CCC(C(C)(C)C)CC2)cnn1-c1nc2ccsc2c(=O)[nH]1 [Q-0399]	0.003 µM	0.024 µM
Cc1c(C(=O)N2CCC(C)CC2C)cnn1-c1nc2ccsc2c(=O)[nH]1 (stereo not shown) [Q-0400]	0.004 µM	0.2 µM
Cc1c(C(=O)N2c3ccccc3CC2C)cnn1-c1nc2ccsc2c(=O)[nH]1 (stereo not shown) [Q-0401]	0.03 µM	0.4 µM
Cc1c(C(=O)N2CC[C@H]3CCCC[C@H]3C2)cnn1-c1nc2ccsc2c(=O)[nH]1 [Q-0402]	0.01 µM	0.041 µM
Cc1c(C(=O)N2CCC(C(F)(F)F)C2)cnn1-c1nc2ccsc2c(=O)[nH]1 (stereo not shown) [Q-0403]	0.009 µM	1.1 µM
Cc1nc(-n2ncc(C(=O)N3c4ccccc4CC3C)c2C)[nH]c(=O)c1C (stereo not shown) [Q-0404]	0.04 µM	4.3 µM
Cc1c(C(=O)N2CC(C)(C)OC(C)(C)C2)cnn1-c1nc2ccsc2c(=O)[nH]1 [Q-0405]	0.01 µM	1.5 µM
Cc1c(C(=O)N2CC(C(F)(F)F)CC(C(F)(F)F)C2)cnn1-c1nc2ccsc2c(=O)[nH]1 (stereo not shown) [Q-0406]	0.05 µM	2 µM
Cc1c(C(=O)N2CC[C@H]3CCCC[C@@H]3C2)cnn1-c1nc2ccsc2c(=O)[nH]1 [Q-0408]	0.01 µM	0.075 µM
Cc1cc2nc(-n3ncc(C(=O)N4CCC(C(F)(F)F)CC4)c3C)[nH]c(=O)c2s1 [Q-0409]	0.2 µM	25 µM
Cc1c(C(=O)N2CCC(C(F)(F)F)CC2)cnn1-c1nc2sccc2c(=O)[nH]1 [Q-0410]	0.002 µM	0.2 µM
Cc1nn(-c2nc3ccsc3c(=O)[nH]2)c(C)c1C(=O)N1CCC(C)(C)C1 [Q-0411]	0.009 µM	2.7 µM
Cc1c(C(=O)N2CCCCC2(C)C)cnn1-c1nc2ccsc2c(=O)[nH]1 [Q-0412]	0.009 µM	0.5 µM
